According to patent US20220110917A1 (priority 2018, published 2022):

Columns and labels:
[1] = in vivo, po
[2] = in vivo; cited from earlier work
[3] = human, in vivo, po
[4] = oral administration in suspension; cited from earlier work

## CCN(CC)CCN1C(=O)CN=C(c2ccccc2F)c2cc(Cl)ccc21 [Flurazepam]
[1]
  residual effect on Choice Reaction Time: showed significant effect
  residual effect on Critical Flicker Fusion: showed significant effect

## CC(=O)[C@H]1CC[C@H]2[C@@H]3CC[C@H]4C[C@H](O)CC[C@]4(C)[C@H]3CC[C@]12C [allopregnanolone, 3α, 5α-tetrahydroprogesterone]
[2]
  half-life: about 35 minutes

## Oc1noc2c1CCNC2 [gaboxadol, 4,5,6,7-tetrahydroisoxazolo [5,4-c] pyridine-3-ol]
[3]
  AUC0-∞ Slope (90% CI), dose proportionality: 0.98 (0.95, 1.01)
  Cmax Slope (90% CI), dose proportionality: 0.95 (0.88, 1.02)
[1]
  residual effect on Choice Reaction Time: did not show residual effect
  residual effect on Critical Flicker Fusion: did not show residual effect
  residual effects on Body Sway: did not show any signs of residual effects
  residual effects on Digit symbol substitution test (DSST): did not show any signs of residual effects
  residual effects on Leeds Sleep Evaluation Questionnaire: did not show any signs of residual effects
  residual effects on Memory tests: did not show any signs of residual effects
  residual effects on Multiple Sleep Latency Test (MSLT): did not show any signs of residual effects
  residual effects on Tracking: did not show any signs of residual effects

## CC(=O)[C@H]1CC[C@H]2[C@@H]3CC[C@H]4C[C@](C)(O)CC[C@]4(C)[C@H]3CC[C@]12C [ganaxolone]
[4]
  Tmax: 1.2 to 2.5 h
  plasma half-life: approximately 20 h
